The values that follow are results of earlier work, collected in patent US10285958B2, “Genotype- or phenotype-based drug formulation” (BAYER AKTIENGESELLSCHAFT, priority 2012, dated 2019).

In data set [1] the target is polymorphic cytochrome P450 (CYP) 2D6 (Homo sapiens, UniProt P10635). The conditions noted are these: humans.

Where two headings read alike, the source gives them in different places.

polymorphic cytochrome P450 (CYP) 2D6, sequence (P10635 whole entry): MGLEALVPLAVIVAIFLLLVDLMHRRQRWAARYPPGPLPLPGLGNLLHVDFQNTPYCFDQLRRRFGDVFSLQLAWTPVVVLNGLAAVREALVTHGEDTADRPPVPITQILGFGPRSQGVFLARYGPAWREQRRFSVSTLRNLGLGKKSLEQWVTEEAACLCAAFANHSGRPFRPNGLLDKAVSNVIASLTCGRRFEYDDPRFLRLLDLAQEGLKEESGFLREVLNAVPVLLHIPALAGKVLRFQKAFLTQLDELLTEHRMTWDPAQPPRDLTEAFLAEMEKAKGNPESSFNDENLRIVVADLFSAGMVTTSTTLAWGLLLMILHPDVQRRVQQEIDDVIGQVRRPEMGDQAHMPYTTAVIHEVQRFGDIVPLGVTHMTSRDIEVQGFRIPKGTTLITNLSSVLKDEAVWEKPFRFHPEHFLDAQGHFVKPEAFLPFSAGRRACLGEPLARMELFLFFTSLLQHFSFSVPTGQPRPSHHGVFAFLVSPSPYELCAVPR

Turning to `CC/C(=C(\c1ccccc1)c1ccc(OCCNC)cc1)c1ccccc1` [N-desmethyltamoxifen], the “formation of endoxifen from N-desmethyltamoxifen via CYP2D6” value in data set [1] is “exclusively”. Take `CC/C(=C(\c1ccccc1)c1ccc(OCCN(C)C)cc1)c1ccccc1` [tamoxifen]: the “time until steady-state concentration of endoxifen is achieved” value (standard dosage 20 mg of tamoxifen, European patients of CYP2D6 EM genotype or phenotype) is listed as “about 80 days”. The “endoxifen concentrations after increased tamoxifen dose” value (up to 40 mg of tamoxifen per day as two individual doses, CYP2D6 IMs and PMs, versus EMs on 20 mg) is given as “did not lead to the endoxifen concentrations observed in CYP2D6 EMs”.

`CC/C(=C(\c1ccc(O)cc1)c1ccc(OCCNC)cc1)c1ccccc1` [endoxifen]: the “endoxifen concentration in blood under tamoxifen therapy” value is, setting by setting: (CYP2D6 IM, versus EM or UM phenotype) “distinctly below”; (CYP2D6 PM) “very low”.
